Laboratory results as given in PubChem BioAssay AID2060494 (Molecular Pharmacology Branch, DTP, NCI, 2025).

System: 435261-313-R-J1-PDC complex spheroid viability
Test: Anticancer human tumor 435261-313-R-J1-PDC patient-derived colon adenocarcinoma cell line growth inhibition [GQUAD]
Conditions: for IC50: curve of first compound; for viability, T/C: stronger effect = lower value
Description: DNA G-quadruplex Stabilizer Agents in Combinations in Complex Spheroids
A high-throughput screen of multi-cell type tumor spheroids was designed to identify active combinations of DNA G-quadruplex stabilizer agents and targeted small molecules. Complex spheroids include a stromal component modeled by human endothelial cells (HUVEC) and fibroblasts modeled by human mesenchymal stem cells (MSCs). The concentration ranges selected for each drug and investigational agent were based upon clinically achievable concentrations if the clinical Cmax of the agent was known.
Compounds. The drugs and investigational agents: pidnarulex (CX-5461; NSC782164), APTO-253 (NSC789042), BRACO-19 (NSC847499), peposertib (NSC802822), ceralasertib (NSC780249), elimusertib (NSC800525), camonsertib (NSC841442), AZD-1390 (NSC803789), olaparib (NSC753686), talazoparib (NSC767125), ART-558 (NSC835418), sotorasib (NSC818433), MRTX-1133 (NSC836407), SN-38 (NSC673596), topotecan (NSC609699), etoposide (NSC141540), doxorubicin (NSC123127), gemcitabine (NSC613327), 5-fluorouracil (NSC19893), paclitaxel (NSC125973), vemurafenib (NSC761431), panobinostat (NSC761190), R-306465 (JNJ-16241199; NSC773264), adavosertib (NSC754352), TP-3654 (NSC805149), carboplatin (NSC241240), KSQ-4279 (NSC840948), and staurosporine (NSC755774) were obtained from the National Cancer Institute (NCI) Developmental Therapeutics Program Chemical Repository (34). The FDA-approved anticancer drug set is available from the NCI Developmental Therapeutics Program. […] The stock solutions were prepared in dimethyl sulfoxide (DMSO, Sigma-Aldrich, St. Louis, MO, cat. D2650) at 800-fold the tested concentration and stored at -70 degrees C prior to their use. All drugs and investigational agents were tested over a range starting from a high concentration at or near the clinical Cmax and decreasing in half-log increments. If the clinical Cmax for an agent had not been determined, the highest concentration tested was 10 microM.
2.3 Cell Culture. All cells were maintained in an incubator at 37 degrees C and 5% CO2 with 95% humidity. The PDC lines were cultured according to standard operating procedures established by the NCI PDMR. All PDCs were thawed and cultured in Matrigel-coated flasks prepared with a working solution of 1X Ham's F-12 nutrient mix, without supplementation (Invitrogen, cat. 11765054), 100 U/mL penicillin-streptomycin (Invitrogen, cat. 15140122), and 2.5% Matrigel (Corning Inc., cat. 354248) for the first three passages. The 857933-349-R-J2-PDC line was cultured in 6C/Colon 1B media, which includes advanced DMEM/F-12 (Thermo Fisher Scientific, cat. 12634028), 10 mM HEPES (Thermo Fisher Scientific, cat. 15630080), 1X GlutaMAX supplement (Thermo Fisher Scientific, cat. 35050061), 0.1 mg/mL primocin (InvivoGen, cat. ant-pm-2), 10% defined fetal bovine serum, heat inactivated (HyClone Laboratories Inc., cat. SH30070.03HI), 50% L-WRN conditioned media (ATCC, cat. CRL-3276), 1.25 mM N-Acetyl-L-cysteine (Sigma-Aldrich, cat. A9165), 10 mM nicotinamide (Sigma-Aldrich, cat. N0636), 1X B-27 supplement (Thermo Fisher Scientific, cat. 17504044), 1X N-2 supplement (Thermo Fisher Scientific, cat. 17502048), 10 microM Y-27632 dihydrochloride (Tocris Bioscience, cat. 1254), and 50 ng/mL human EGF recombinant protein (Thermo Fisher Scientific, cat. PHG0311). The 485176-168-R4-J1-PDC line was cultured in Panc media, which includes all 6C/Colon 1B media components plus 100 ng/mL human FGF-10 (Thermo Fisher Scientific, cat. 100-26), 500 nM SB-431542 (Selleckchem, cat. S1067), and gastrin (Tocris, cat. 3006).
[…]
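Note: spheroids exposed to the agents for seven days before readout.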
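Throughout, for viability, T/C: percent of vehicle control viability with DMSO wells as 100%.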

CC1COCCN1c1cc(C2(S(C)(=N)=O)CC2)nc(-c2ccnc3[nH]ccc23)n1 (configuration not stated) + Cc1cnc(CNC(=O)c2c(=O)c3ccc(N4CCCN(C)CC4)nc3n3c2sc2ccccc23)cn1
IC50 (second compound 0.0316 µM): 3.84 µM
IC50 (second compound 0.1 µM): 3.2 µM
IC50 (second compound 0.316 µM): 2.35 µM
IC50 (second compound 1 µM): < 0.0316 µM
IC50 (second compound 3.16 µM): < 0.0316 µM
IC50 (second compound 10 µM): < 0.0316 µM
viability, T/C (second compound 0.0316 µM, first compound 0.0316 µM): 52.9%
viability, T/C (second compound 0.0316 µM, first compound 0.1 µM): 57.6%
viability, T/C (second compound 0.0316 µM, first compound 0.316 µM): 66.8%
viability, T/C (second compound 0.0316 µM, first compound 1 µM): 53.9%
viability, T/C (second compound 0.0316 µM, first compound 3.16 µM): 49.2%
viability, T/C (second compound 0.0316 µM, first compound 10 µM): 42.7%
viability, T/C (second compound 0.1 µM, first compound 0.0316 µM): 41.4%
viability, T/C (second compound 0.1 µM, first compound 0.1 µM): 66.6%
viability, T/C (second compound 0.1 µM, first compound 0.316 µM): 46.2%
viability, T/C (second compound 0.1 µM, first compound 1 µM): 45.9%
viability, T/C (second compound 0.1 µM, first compound 3.16 µM): 50.6%
viability, T/C (second compound 0.1 µM, first compound 10 µM): 38.8%
viability, T/C (second compound 0.316 µM, first compound 0.0316 µM): 53.5%
viability, T/C (second compound 0.316 µM, first compound 0.1 µM): 55.8%
viability, T/C (second compound 0.316 µM, first compound 0.316 µM): 60.6%
viability, T/C (second compound 0.316 µM, first compound 1 µM): 55.1%
viability, T/C (second compound 0.316 µM, first compound 3.16 µM): 44.9%
viability, T/C (second compound 0.316 µM, first compound 10 µM): 40.5%
viability, T/C (second compound 1 µM, first compound 0.0316 µM): 31.8%
viability, T/C (second compound 1 µM, first compound 0.1 µM): 37.9%
viability, T/C (second compound 1 µM, first compound 0.316 µM): 35.9%
viability, T/C (second compound 1 µM, first compound 1 µM): 41.5%
viability, T/C (second compound 1 µM, first compound 3.16 µM): 31.3%
viability, T/C (second compound 1 µM, first compound 10 µM): 26%
viability, T/C (second compound 3.16 µM, first compound 0.0316 µM): 18.1%
viability, T/C (second compound 3.16 µM, first compound 0.1 µM): 10.2%
viability, T/C (second compound 3.16 µM, first compound 0.316 µM): 21%
viability, T/C (second compound 3.16 µM, first compound 1 µM): 18.6%
viability, T/C (second compound 3.16 µM, first compound 3.16 µM): 17.3%
viability, T/C (second compound 3.16 µM, first compound 10 µM): 5.09%
viability, T/C (second compound 10 µM, first compound 0.0316 µM): 0.26%
viability, T/C (second compound 10 µM, first compound 0.1 µM): 0.15%
viability, T/C (second compound 10 µM, first compound 0.316 µM): 0.17%
viability, T/C (second compound 10 µM, first compound 1 µM): 0.18%
viability, T/C (second compound 10 µM, first compound 3.16 µM): 0.2%
viability, T/C (second compound 10 µM, first compound 10 µM): 0.21%
